From PMC8333425, “Discovery of a dual Ras and ARF6 inhibitor from a GPCR endocytosis screen” (Nature Communications, 2021)
Values joined by “and” are separate entries in the source; they are usually repeats but may differ in a detail not shown here. Equal entries are not always repeated.

Columns and labels:
[1] = system: β-arrestin2; assay: Confocal microscopy of β-arrestin2-YFP trafficking with B2R; assay type: cell-based, human; settings: 50 μM; BK
Experimental: One day before transfection, cells were seeded in 35-mm glass-bottom dishes (MatTek Corporation) at a density of 1 × 10^5 cells per dish. For the recordings of receptor internalization, HEK293 SL cells were transfected with 2 μg of AT1R-YFP. For the recordings of β-arrestin-2 recruitment to the receptor, HEK293SL cells were transfected with 50 ng of β-arrestin2-YFP and 250 ng of Flag-AT1R or HA-B2R. Forty-eight hours post-transfection, cells were serum starved, preincubated with DMSO (0.1% final concentration) or Rasarfin (50 μM) for 30 min at 37 °C. AT1R-expressing cells were stimulated with angiotensinII (AngII; 100 nM) and B2R-expressing cells were stimulated with bradykinin (BK; 1 μM) for 30 min (receptor-YFP) or 15 min (β-arrestin2-YFP). Cells were imaged with Zeiss LSM-510 and/or LSM-710 laser scanning confocal microscope. To detect YFP, […] and BP 505–550 nm emission filter. Images (2048 × 2048) were collected using a 63x oil immersion lens.

[2] = target: T1, RhoA (Homo sapiens, UniProt P61586); assay: GST-Rhotekin-RBD pull-down of AT1R-mediated RhoA activation; assay type: cell-based; settings: for Rho-GTP/Rho: GST-Rhotekin-RBD, listed as Comp 21
T1 construct: endogenous in cells; host or cells: HEK293SL
Experimental: Activation of ARF1, ARF6, Ras, and Rho were assessed by using GST pull-down assays. HEK293SL cells were transiently transfected with 3 µg AT1R-flag only (Ras and Rho) or along with 500 ng HA-ARF6 (ARF6) or HA-ARF1 (ARF1). Forty-eight hours later, the HEK293 or MDA-MB-231 cells were serum-starved for 4 h with DMEM containing 20 mM HEPES then pretreated with DMSO or Rasarfin (50 µM) for 30 min. Cells were then stimulated with 1 µM AngII or 100 ng/ml EGF for 0 and 2 min. Cells were then washed once with ice-cold PBS and lysed for 30 min at 4 °C in 300 µl of lysis buffer (pH 7.5, 50 mM Tris-HCl, 140 mM NaCl, 5 mM MgCl2, 10% glycerol (v/v), 1% Nonidet P-40 (v/v), 1 mM dithiothreitol) supplemented with protease inhibitors (1 mM phenylmethyl-sulfonyl fluoride (PMSF), 10 µg/ml leupeptin, 5 µg/ml aprotinin, 1 µg/ml pepstatin A) and phosphatase inhibitors (20 mM NaF, 0.025 mM pervanadate). The samples were cleared by centrifugation and 30 µl (cell lysates) was kept for assessing total protein contents. The remaining was transferred to fresh tubes with 20 µg of either GST, GST-GGA3-PBD, GST-Raf1-RBD or GST-Rhotekin-RBD coupled to glutathione resin and rotated for 1–2 h at 4 °C. Beads were washed twice with lysis buffer and proteins were eluted in 25 μl 2x laemmli buffer by heating at 65 °C for 15 min. Proteins were resolved on 14% SDS-PAGE, transferred to nitrocellulose membranes, and immunoblotted for HA, Ras, RhoA, H-Ras, or ARF6. ImageLab 5.2 software was used to quantify the digital blots as fold of the amount of pulled down protein over total protein. Uncropped coomassie gels and immunoblots are provided in the Source Data file.

[3] = target: H-Ras (Homo sapiens, UniProt P01112); assay: In vitro mant-GTP exchange assay, purified H-Ras with 40 mM EDTA; assay type: biochemical; parameters: the cDNA of H-Ras (full length) was obtained by RT-PCR of HEK293SL; GST (N); made in house; host or cells: E. coli BL21
Experimental: Ras activity was assessed in a 384-well black bottom plate using the mant-GTP exchange factor assay that measures the uptake of the fluorescent nucleotide analog N-methylanthraniloyl-GTP (mant-GTP) into GTPases. For Ras activation, 2X exchange buffer, 1.66 μg of purified pGEX-6P-1-H-Ras or pGEX-6P-1-K-Ras-WT or pGEX-6P-1-K-Ras-Y32A were added per well in presence of DMSO, different concentrations of Rasarfin (as indicated) or 50 µM of compounds 21.4, 21.7, or 21.8. Using the Infinite 200 Pro plate reader (Tecan) with filters set at 360 nm and 440 nm for detecting the excitation and emissions, respectively, and temperature set at 20 °C, 5 readings were recorded every 5 s before the addition of either H2O, 40 mM EDTA or 0.66 μg purified SOS1. The fluorescence of mant-GTP uptake was measured every 30 sec for 30 min and quantified as the delta relative fluorescence units (RFU), which was calculated as the RFU post-addition minus the 5 averaged RFU pre-addition, per condition.

[4] = system: ERK1/2 activation by V2R; assay: Western blot of V2R-mediated ERK1/2 activation (rebuttal Figure 1); assay type: cell-based, human; settings: Barbadin 100 µM

T1 sequence (P61586 whole entry): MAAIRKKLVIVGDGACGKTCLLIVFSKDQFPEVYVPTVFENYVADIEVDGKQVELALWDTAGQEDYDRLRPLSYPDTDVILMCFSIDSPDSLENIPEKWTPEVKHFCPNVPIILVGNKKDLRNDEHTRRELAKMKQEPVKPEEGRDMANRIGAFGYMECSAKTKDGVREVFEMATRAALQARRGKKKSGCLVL
H-Ras, sequence (P01112 whole entry): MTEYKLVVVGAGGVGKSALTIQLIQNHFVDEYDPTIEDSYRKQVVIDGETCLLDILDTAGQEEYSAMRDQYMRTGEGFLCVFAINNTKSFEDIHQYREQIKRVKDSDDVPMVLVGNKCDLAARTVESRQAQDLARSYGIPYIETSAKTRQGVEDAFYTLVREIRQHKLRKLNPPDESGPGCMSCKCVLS

| SMILES | β-arrestin trafficking with B2R into endosomes (microscopy) [1] | pull-down of Rho-GTP by GST-Rhotekin-RBD from cells stimulated with AT1R ([2]; 50 μM) | Rho-GTP/Rho ([2]; AngII) | Rho-GTP/Rho ([2]; Ctrl) | mant-GTP binding to purified H-Ras promoted by EDTA [3] | V2R-mediated ERK1/2 phosphorylation in HEK293 cells [4] |
| --- | --- | --- | --- | --- | --- | --- |
| CC(C)C(=O)N1CCN(c2ccc(NC(=O)c3cc4ccccc4o3)cc2Cl)CC1 [Compound 21] | prevented β-arrestins’ trafficking with receptors into endosomes | nor did it prevent the pull-down of Rho-GTP | 0.2491 and 0.2385 and 0.2151 and 0.2027 | 0.1261 and 0.1465 and 0.07786 and 0.1043 | also inhibited mant-GTP binding promoted by EDTA | – |
| Nn1cnc2scc(-c3ccc(Cc4ccccc4)cc3)c2c1=O [Barbadin, reference compound] | – | – | – | – | – | potent inhibition |
